Like-named read-outs stand apart in the source and are kept apart here.
Columns and labels:
[1] = test system: T-47D breast cancer cell line; assay: MTT anti-proliferative assay, breast cancer cell line T-47D; assay type: cell-based; settings: Homo sapiens, T47D
[2] = test system: A549 lung cancer cell line; assay: MTT anti-proliferative assay, lung cancer cell line A549; assay type: cell-based; settings: Homo sapiens, A549, read-out: IC50 (µM) A549, MTT assay, lung cancer cell line A549; average ± standard deviation of independent triplicates

Structure (SMILES) | IC50 ([1]; read-out: IC50 (µM) T-47D, MTT assay, breast cancer cell line T-47D, average ± standard deviation of independent triplicates) | IC50 [2] | IC50 ([1]; read-out: IC50 (µM) T-47D)
C#Cc1cccc(Nc2ncnc3cc(OCCOC)c(OCCOC)cc23)c1 [Erlotinib] | 8.14 ± 0.97 µM | 5.73 ± 0.69 µM | –
CN[C@@H]1C[C@H]2O[C@@](C)([C@@H]1OC)n1c3ccccc3c3c4c(c5c6ccccc6n2c5c31)C(=O)NC4 [Staurosporine] | – | – | 6.83 ± 1.03 µM
